Test results from patent US8871280B1, “Compositions and methods for treating fungal activity in plants or soil” (The United States of America, as represented by the …, priority 2011, dated 2014).

What was measured:
[1] = test system: Rhizoctonia solani; assay: Fungicidal vs fungistatic potential (regrowth of mycelial plugs on fresh PDA, 7 days); assay type: cell-based, Rhizoctonia solani AG-4, isolate Rs 23A
Procedure: The fungicidal and fungistatic potential of the PEs were determined by the method described by Garber and Houstan (Garber R. H., and B. R. Houston, Phytopathology, 49: 449-450 (1959)). In brief, three 5 mm diameter plugs were taken from the peripheral mycelial growth from each plate and placed in a fresh PDA plate. Following incubation at room temperature for 7 days, observations were recorded for new mycelial growth (fungistatic) or no mycelial growth (fungicidal). As control, peripheral mycelial plugs from soybean oil amended PDA plates were checked for fresh mycelial growth in fresh PDA plates.

[2] = test system: Rhizoctonia solani; assay: Greenhouse suppression of damping off of cucumber seedlings in R. solani infested soil amended with plant extract; assay type: in vivo, Rhizoctonia solani AG-4, isolate Rs 23A; details: for % Disease suppression (+ PE + R. solani): cucumber damping off, soil amendment at 0.3% (v/w), four weeks after sowing; for Avg. seed Germination (+ PE + R. solani): cucumber, 12 seeds sown per pot, infested soil amended with 0.3% PE
[3] = test system: Rhizoctonia solani; assay: Filter disk fumigation method, mycelial growth inhibition on PDA; assay type: cell-based, Rhizoctonia solani AG-4, isolate Rs 23A; details: for Fumig1 % inhibition: fumigation experiment 1; for Fumig2 % inhibition: fumigation experiment 2; for Inhibition of R. solani growth by fumigation action, in words: in vitro, filter disk
Procedure: (§1) Fungal isolate and preparation of inoculum: Rhizoctonia solani AG-4, isolate Rs 23A is a highly virulent pathogenic isolate which infects many vegetables, ornamentals and turfgrasses (Lewis, J. A., and G. C. Papavizas, Soil Biology and Biochemistry, 9:195-201 (1987)). The fungus was grown in potato dextrose agar (PDA) plates and fungal plugs from the freshly growing mycelium were mixed with moist sterilized cracked wheat in a 2 L flask for 15 days in dark at 22° C. (Lakshman, D. K., et al., Proceedings of the National Academy of Science, USA, 95: 6425-6429 (1998)). The infested wheat was air dried in a sterile hood for 3 days, blended in a homogenizer and sieved through a mesh and stored at 2° C. before soil inoculation. A dose response of the inocula was carried out by thoroughly mixing using 0.25, 0.5, 0.75, 1.0, 1.25 and 1.50 g inoculums per Kg dry weight potting soil plus sterile water to maintain 25-30% moisture and incubating at room temperature for two weeks before sowing cucumber (cv muncher) seeds with the infested soil. The percent germination and post-emergence damping off of cucumber seedlings were recorded. The lowest inoculums dose that induced 100% postemergence damping off was estimated to be 1 to 1.25 g/Kg soil for inocula prepared over the span of the experiments. For soil fumigation with plant extracts (PEs), each time the minimum inoculum dose giving rise to 100% damping off was used.
In the second protocol, the chemical was kept not in direct contact with the fungus and we hypothesized that the plant extract will most likely influence the growth of the pathogen by fumigation action. In this approach, three sterile 15 mm filter paper (Whatman International Ltd, Maidstone, UK) disks were placed on the edge of each of three plates on the PDA. Each disk was impregnated in the center with various amounts (5-50 ul/disk) of the test solution/suspension. For negative control, only soybean oil was placed in the filter disk. […] The average radial growth was calculated and the experiment was repeated one more time. Percent growth inhibition was calculated as reported for poison bed assay.

[4] = test system: cucumber seeds; assay: Greenhouse assay of seed germination and phytotoxicity, soil treated with plant extract alone; details: in vivo
Procedure: Soil treatment: For each treatment, 300 g of dry greenhouse soli (Pro-mix, Premier Horticulture LTD, Red Hill, Pa.) was thoroughly mixed with Rhizoctonia inoculum and incubated for 15 days as described above. […] The infested soil treated with only the carrier solution served as an untreated control. Following the treatment, the soil was thoroughly stirred to mix the contents and incubated in a double polythene bag closed tightly in the dark at room temperature for four days for fumigation to occur. Following the incubation, the bag was opened to allow as much PE to dissipate as possible. This was done by sprinkling the surface soil with sterile water every other day, and stirring the soil once every day for seven days. For assay of effect on seed germination and phytotoxicity of the plant extracts, soil was treated with plant extract formulations alone.
Greenhouse studies: Treated soil from each treatment was distributed to 4-inch plastic pots into which 12 seeds of cucumbers (95-100% germination) were sown and lightly watered to keep soil moist. The treatments were color coded and pots were randomized across treatment. All plants were kept in a greenhouse between 20° C. (night) to 26° C. (day) with 14 h of light. There were three pots per treatment in each experiment, and the experiment was repeated three times. As positive control, a broad spectrum popular soil fungicide Banrot® 40 WP (The Scotts Company, Ohio) was used following manufacturer's recommendation to control the disease. Total number of seedlings without any sign of damping off in each pot was recorded and percentage of disease suppression were calculated four weeks after sowing cucumber seeds.

[5] = test system: Rhizoctonia solani; assay: Poison food technique (contact action), mycelial growth inhibition in PDA; assay type: cell-based, Rhizoctonia solani AG-4, isolate Rs 23A; details: for PoisonB1 % inhibition: poison bed experiment 1; for PoisonB2 % inhibition: poison bed experiment 2; for Inhibition of R. solani growth by contact (poison bed assay), in words: in vitro, PDA
Procedure: as §1
In vitro bioassays: Two in vitro bioassay methods were used to investigate the mycelial growth inhibitory potentials of PEs. In the poison food technique, test chemical/plant extract was mixed at concentrations of 15, 30, 45, 60, 75, and 150 μl per 20 ml autoclaved PDA at 50° C., poured on three sterile disposable plastic plates (100×15 mm, Fisherbrand) at 20 ml/plate and cooled to room temperature to solidify (Dhingra, O.D., and J. B. Sinclair, 1995, Basic Plant Pathology Methods, 2nd Edition, Lewis Publishers, Boca Raton and London). […] Each plate was seeded in the center with a 5 mm diameter agar disk of the freshly grown Rhizoctonia pathogen, mycelial side facing the medium, and sealed with stretched Parafilm® M (Fisher Scientific). The plates were incubated in the dark at room temperature and when the pathogen reached to the edge of the plates in the control treatment (soybean oil), radial measurement of fungal growth in plates treated with PEs were recorded by taking three measurements from each plate. The experiment was repeated one more time. The percent mycelial growth inhibition (MGI) due to PE was calculated using the following formula: […] where dc=Avg. radial growth in mm of pathogen in control plate; dt=avg. radial growth in mm of pathogen in treated plate.

## C=CCc1ccc(OC)cc1
[1]; amount oil 15 μL/20 mL plate
  Effect (fumigation): S
  Effect (poison bed, contact action): S
[1]; amount oil 30 μL/20 mL plate
  Effect (fumigation): S
  Effect (poison bed, contact action): S
[1]; amount oil 45 μL/20 mL plate
  Effect (fumigation): S
  Effect (poison bed, contact action): S
[1]; amount oil 60 μL/20 mL plate
  Effect (fumigation): S
  Effect (poison bed, contact action): S
[1]; amount oil 75 μL/20 mL plate
  Effect (fumigation): S
  Effect (poison bed, contact action): S
[1]; amount oil 150 μL/20 mL plate
  Effect (fumigation): S
  Effect (poison bed, contact action): S
[1]; in vitro, fumigation and contact action
  Fungicidal vs fungistatic nature: fungistatic
[2]
  % Disease suppression (+ PE + R. solani): 58.33%
  Avg. seed Germination (+ PE + R. solani): 7.00
[3]; amount oil 15 μL/20 mL plate
  Fumig1 % inhibition: 95%
  Fumig2 % inhibition: 97%
[3]; amount oil 30 μL/20 mL plate
  Fumig1 % inhibition: 97%
  Fumig2 % inhibition: 102%
[3]; amount oil 45 μL/20 mL plate
  Fumig1 % inhibition: 97%
  Fumig2 % inhibition: 102%
[3]; amount oil 60 μL/20 mL plate
  Fumig1 % inhibition: 97%
  Fumig2 % inhibition: 100%
[3]; amount oil 75 μL/20 mL plate
  Fumig1 % inhibition: 98%
  Fumig2 % inhibition: 103%
[3]; amount oil 150 μL/20 mL plate
  Fumig1 % inhibition: 99%
  Fumig2 % inhibition: 103%
[3]
  Inhibition of R. solani growth by fumigation action, in words: potent inhibitors
[4]
  % Seed germination (+ PE only): 75.00%
  Avg. seed germination (+ PE only): 9.00
[5]; amount oil 15 μL/20 mL plate
  PoisonB1 % inhibition: 94%
  PoisonB2 % inhibition: 13%
[5]; amount oil 30 μL/20 mL plate
  PoisonB1 % inhibition: 100%
  PoisonB2 % inhibition: 56%
[5]; amount oil 45 μL/20 mL plate
  PoisonB1 % inhibition: 100%
  PoisonB2 % inhibition: 92%
[5]; amount oil 60 μL/20 mL plate
  PoisonB1 % inhibition: 100%
  PoisonB2 % inhibition: 100%
[5]; amount oil 75 μL/20 mL plate
  PoisonB1 % inhibition: 100%
  PoisonB2 % inhibition: 100%
[5]; amount oil 150 μL/20 mL plate
  PoisonB1 % inhibition: 100%
  PoisonB2 % inhibition: 100%
[5]
  Inhibition of R. solani growth by contact (poison bed assay), in words: potent inhibitors

## C=CC(C)(O)CCC=C(C)CCC=C(C)C (mixture of isomers) [Nerolidol]
[1]; amount oil 15 μL/20 mL plate
  Effect (fumigation): S
  Effect (poison bed, contact action): S
[1]; amount oil 30 μL/20 mL plate
  Effect (fumigation): S
  Effect (poison bed, contact action): S
[1]; amount oil 45 μL/20 mL plate
  Effect (fumigation): S
  Effect (poison bed, contact action): S
[1]; amount oil 60 μL/20 mL plate
  Effect (fumigation): S
  Effect (poison bed, contact action): S
[1]; amount oil 75 μL/20 mL plate
  Effect (fumigation): S
  Effect (poison bed, contact action): S
[1]; amount oil 150 μL/20 mL plate
  Effect (fumigation): S
  Effect (poison bed, contact action): S
[3]; amount oil 15 μL/20 mL plate
  Fumig1 % inhibition: 0%
  Fumig2 % inhibition: 0%
[3]; amount oil 30 μL/20 mL plate
  Fumig1 % inhibition: 0%
  Fumig2 % inhibition: 40%
[3]; amount oil 45 μL/20 mL plate
  Fumig1 % inhibition: 0%
  Fumig2 % inhibition: 42%
[3]; amount oil 60 μL/20 mL plate
  Fumig1 % inhibition: 0%
  Fumig2 % inhibition: 41%
[3]; amount oil 75 μL/20 mL plate
  Fumig1 % inhibition: 0%
  Fumig2 % inhibition: 42%
[3]; amount oil 150 μL/20 mL plate
  Fumig1 % inhibition: 0%
  Fumig2 % inhibition: 41%
[5]; amount oil 15 μL/20 mL plate
  PoisonB1 % inhibition: 71%
  PoisonB2 % inhibition: 78%
[5]; amount oil 30 μL/20 mL plate
  PoisonB1 % inhibition: 78%
  PoisonB2 % inhibition: 81%
[5]; amount oil 45 μL/20 mL plate
  PoisonB1 % inhibition: 83%
  PoisonB2 % inhibition: 87%
[5]; amount oil 60 μL/20 mL plate
  PoisonB1 % inhibition: 84%
  PoisonB2 % inhibition: 90%
[5]; amount oil 75 μL/20 mL plate
  PoisonB1 % inhibition: 87%
  PoisonB2 % inhibition: 92%
[5]; amount oil 150 μL/20 mL plate
  PoisonB1 % inhibition: 89%
  PoisonB2 % inhibition: 99%

## C=CCN=C=S [Allyisothiocynate]
[1]; in vitro, fumigation and contact, all concentrations tested
  Fungicidal vs fungistatic nature at all concentrations tested: fungicidal
[2]
  % Disease suppression (+ PE + R. solani): 88.92%
[3]
  Inhibition of R. solani growth by fumigation action, in words: potent inhibitors
[5]
  Inhibition of R. solani growth by contact (poison bed assay), in words: potent inhibitors

## C=CCN=C=S [Allylisothiocyanate]
[3]; amount oil 15 μL/20 mL plate
  Fumig1 % inhibition: 100%
  Fumig2 % inhibition: 100%
[3]; amount oil 30 μL/20 mL plate
  Fumig1 % inhibition: 100%
  Fumig2 % inhibition: 100%
[3]; amount oil 45 μL/20 mL plate
  Fumig1 % inhibition: 100%
  Fumig2 % inhibition: 100%
[3]; amount oil 60 μL/20 mL plate
  Fumig1 % inhibition: 100%
  Fumig2 % inhibition: 100%
[3]; amount oil 75 μL/20 mL plate
  Fumig1 % inhibition: 100%
  Fumig2 % inhibition: 100%
[3]; amount oil 150 μL/20 mL plate
  Fumig1 % inhibition: 100%
  Fumig2 % inhibition: 100%
[5]; amount oil 15 μL/20 mL plate
  PoisonB1 % inhibition: 100%
  PoisonB2 % inhibition: 100%
[5]; amount oil 30 μL/20 mL plate
  PoisonB1 % inhibition: 100%
  PoisonB2 % inhibition: 100%
[5]; amount oil 45 μL/20 mL plate
  PoisonB1 % inhibition: 100%
  PoisonB2 % inhibition: 100%
[5]; amount oil 60 μL/20 mL plate
  PoisonB1 % inhibition: 100%
  PoisonB2 % inhibition: 100%
[5]; amount oil 75 μL/20 mL plate
  PoisonB1 % inhibition: 100%
  PoisonB2 % inhibition: 100%
[5]; amount oil 150 μL/20 mL plate
  PoisonB1 % inhibition: 100%
  PoisonB2 % inhibition: 100%

## C=CCc1ccc(O)c(OC)c1 [Eugenol]
[2]
  % Disease suppression (+ PE + R. solani): 44.42%
  Avg. seed Germination (+ PE + R. solani): 5.33
[4]; cucumber, 0.3 % of PE in soil (3000 ppm)
  Avg. seed germination (+ PE only): 10.00
